ChEMBL document CHEMBL1671811, “Deconstruction of non-nucleoside reverse transcriptase inhibitors of human immunodeficiency virus type 1 for exploration of the optimization landscape of fragments” (J Med Chem, 2011)

What was measured:
[1] = molecular target: T1, Human immunodeficiency virus type 1 reverse transcriptase (Human immunodeficiency virus 1, UniProt Q72547); experiment: Binding affinity to HIV1 reverse transcriptase by surface plasmon resonance based biosensor assay
[2] = molecular target: T1, Human immunodeficiency virus type 1 reverse transcriptase; experiment: Inhibition of HIV1 reverse transcriptase

Structure (SMILES) | Kd [1] [µM] | IC50 [2] [µM]
O=C(CSc1nncn1-c1ccccc1)Nc1ccccc1 | 1700 | –
NS(=O)(=O)c1ccc(NC(=O)CSc2nc[nH]n2)cc1 | 1600 | –
Cc1ccccc1OCC(=O)Nc1ccc(S(N)(=O)=O)cc1 | 1100 | –
NS(=O)(=O)c1ccc(NC(=O)CSc2nncn2-c2ccccc2)cc1 | 1300 | –
Cc1cc(S(N)(=O)=O)ccc1NC(=O)COc1ccc(Cl)cc1C(=O)c1cc(F)cc(C(F)(F)F)c1 | – | 0.0014

Next, values leading:

Kd [1] [µM] | IC50 [2] [µM] | Structure (SMILES)
700 | – | NC(=S)NCCc1ccccc1
30 | – | NS(=O)(=O)c1ccc(NC(=O)COc2ccc(Cl)cc2)cc1
800 | – | CC(=O)c1ccccc1OCC(=O)Nc1ccccc1C
800 | – | Cc1ccc(-n2cnnc2SCC(=O)Nc2ccccc2)cc1
6 | – | S=C(NCCc1ccccc1)Nc1ccccn1
2 | – | S=C(NCCc1ccccc1)Nc1ccc(Br)cn1
